Measurements published in US10709784B2, “Metal chelating compositions and methods for controlling the growth or activities of a living cell or organism” (CHELATION PARTNERS INCORPORATED, priority 2011, dated 2020).
Where two headings read alike, the source gives them in different places.

Tests used:
S. aureus = assay: MIC of chelators in Fe-restricted RPMI; type: cell-based; conditions: Staphylococcus aureus
Procedure: (§1) Soluble chelating compositions prepared as in example 4 and example 6 as well as the commercially clinically used low molecular weight (<1500 Da) chelators desferal (Novartis Pharmaceutical Company) and deferiprone (Apotex Pharmaceutical Company) were tested as to their MICs against representative pathogenic bacterial species in RPMI medium that had been treated as in example 38 but to which Fe was re-added to known concentrations that permitted growth of the bacteria under partially Fe restrictive conditions, i.e., so as to simulate the low Fe environmental supply available during infection by these bacteria in man or other animals. MIC testing was done in a manner similar to that described for example 15 but with test series being conducted in multi-well microtiter plates, each well providing a separate treatment test.
(§2) The clinically used chelators were not inhibitory in the case of Pseudomonas aeruginosa with no inhibition observed at the highest concentration tested (300 μg/ml for desferal and 100 μg/ml for deferiprone). Staphylococcus aureus was not inhibited by desferal and was inhibited by deferiprone to a lesser extent than for the soluble compositions of the present invention. Conversely, Escherichia coli was not inhibited by deferiprone but was inhibited substantially by desferal.

P. aeruginosa = assay: MIC of chelators in Fe-restricted RPMI; type: cell-based, Pseudomonas aeruginosa
Procedure: as §1, §2

E. coli = assay: MIC of chelators in Fe-restricted RPMI; type: cell-based, Escherichia coli
Procedure: as §1, §2

[1] = system: Clinical isolates of Staphylococcus aureus; assay: Growth inhibition of clinical isolates in MHB (turbidity 600 nm); type: cell-based; conditions: over 7 mM Fe binding equivalents, overnight
Text: Clinical isolates of Staphylococcus aureus as obtained from human infections were obtained and are obtainable from the culture collection of Warren Grubb, Curtin University, Perth, Australia. It should be noted that the clinical isolates as obtained from patients at the Royal Perth Hospital in Perth Australia can be expected to have strong similarities to other clinical isolates of this bacterium as obtained elsewhere in the world as the genetic determinants of antibiotic resistance characteristics in Staphylococcus aureus are now generally understood. Thus, similar results to those shown in examples 14-17 can be expected with other clinical isolates as obtained elsewhere and having similar antibiotic resistance patterns to those tested for these examples. […]
A range of dilutions of the deferiprone or soluble chelating composition was prepared in MHB in test tubes so as to provide a range of added iron chelating capacity as measured in Fe binding equivalents. […] The tubes were incubated at an angle on a reciprocating shaker at 37° C. overnight and the growth results were scored as a percentage of growth based on measured turbidity at a wavelength of 600 nm with a spectrophotometer of the test sample, as compared to a control samples that had received no added deferiprone or soluble chelating composition. […]

[2] = system: Candida albicans ATCC 10231; assay: Growth with chelating materials of different molecular weight, 84 hours; type: cell-based; conditions: 30° C., defined medium without added iron, FIG. 8
Procedure: Candida albicans ATCC 10231 was tested for its sensitivities to: the medical chelator deferiprone (#1 in the graph of FIG. 8) (a product of Apotex Pharmaceuticals); the precursor chemicals used for the preparation of soluble chelating compositions of the present invention, including 3-hydroxy-2-methyl-4-pyrone (#2 in the graph of FIG. 8), AHMP as from Example 1 (#3 in the graph of FIG. 8) and MAHMP as from Example 2 (#4 in the graph of FIG. 8) and also the soluble chelating composition as from Example 4 (#5 in the graph of FIG. 8). The yeast was grown in defined medium as for Example 18 with no additional added iron (i.e., the only but adequate Fe available for the yeast was contributed from being present along with the other added medium components). Growth of the yeast in the defined media with added test chelating materials was compared to control samples that had not received any of the chelating materials following 84 hours of incubation and growth at 30° C. […] These chelators being internalized by the yeast were incapable of restricting iron supply to the yeast cells. […] Thus, low molecular weight chelators such as deferiprone and similar compounds permitted growth while the soluble chelating composition that contained functional groups similar to deferiprone but was a molecular weight higher than 1500 Daltons restricted growth, eventhough the various compounds tested were each capable of binding iron through their pyridinone functionality.

[3] = system: antibiotic resistant strains of Staphylococcus aureus; assay: NCCLS MIC antibiotic sensitivity with added chelator; type: cell-based; conditions: strain WBG525
Procedure: Sensitive or antibiotic resistant strains of Staphylococcus aureus (S. aureus) were grown on blood agar plates overnight at 37° C. Four to six individual colonies of each strain were harvested into Mueller-Hinton broth (MHB) and incubated at 37° C. until they reached an optical density equal to or exceeding a 0.5 McFarland standard. The culture was diluted with MHB to equal 0.5 McFarland standard. Dilutions (10^−1) of these standards were used for inocula. Various stains of antibiotic resistant Staphylococcus aureus were used for these tests as shown in the results below. It should be appreciated that growing the bacterial strains on blood agar and then in MHB ensured the inoculum was not restricted for iron prior to the test but rather the bacterial cells were with ample endogenous iron supply.
A range of two-fold dilutions of a test antibiotic was prepared in MHB. […] Soluble and insoluble chelating compositions, as prepared in Example 6 or Example 5, or the free iron chelating agent deferiprone were added to the antibiotic containing tubes at known concentrations of iron binding capacity (referred to as iron binding equivalents) to allow direct comparison of the different compositions or free chelator. The final volume per tube was 500 μl. Bacterial inoculum, 25 μl of the 10^−1 dilutions of the appropriate S. aureus strain was added to each tube. The tubes were incubated at an angle on a reciprocating shaker at 37° C. overnight and results were scored as growth based on turbidity or no growth (lack of turbidity). The Minimum Inhibitory Concentration (MIC) for the antibiotic was determined from the growth results.
A series of tests was set up as in Example 15 with various antibiotic anti-cellular agents. The clinically isolated strains were obtained from the culture collection of Warren Grubb, Curtin University, Perth, Australia.
A series of antibiotic sensitivity tests was set up as in example 16 utilizing the soluble chelating compositions as prepared in Example 6. Separate test series with different clinically isolated Staphylococcus aureus strains, as obtained from the culture collection of Warren Grubb, Curtin University, Perth, Australia, and various antibiotics were employed but for each series a control test comprising addition of iron sufficient to supply two times the chelating capacity of the supplied chelating composition was also included.

[4] = Overall Fe association constants; type: binding; conditions: Fe (III)
Text: Measurement of the Fe binding strengths can be measured and compared for different chelating materials.

[5] = system: Candida albicans ATCC 10231; assay: Challenge growth test, fluconazole and chelator within a semi-permeable device; type: cell-based
Text: In one such culture, only medium was present as a control. […] The chelator was not added directly to the culture medium but was provided as within a dialysis membrane within the culture medium, such that only the external surfaces of the dialysis membrane device were in contact with the bulk of the culture medium, the chelator being within the membrane bag. The dialysis membrane was of the same type that had been used to prepare the soluble chelator and thus its use here ensured that the added chelator would be retained within the membrane device as in contact with the culture medium from within a semi-permeable membrane, i.e., the dialysis tubing. […] All four test cultures were inoculated with the yeast and growth was monitored at intervals in the test cultures by optical density measurement at 600 nm over a 120 hr test period.

[6] = system: Candida albicans ATCC 10231; assay: Fluconazole MIC (80% growth inhibition) with soluble chelator; type: cell-based
Procedure: Candida albicans ATCC 10231, yeast cells, as grown in defined medium with no additional added Fe as in example 18, were tested in the same media for their sensitivities to fluconazole, an anti-cellular agent as proto-typical of the azole class of antibiotics that are commonly used to control fungal growth and pathogenesis in humans and with fluconazole plus the soluble chelating composition, as prepared in Example 4. Fluconazole as a typical member of the azole class of anti-fungal antibiotics that function by inhibiting sterol synthesis.

[7] = system: Candida albicans ATCC 10231; assay: Challenge growth test, sorbate and chelator within a semi-permeable device; type: cell-based; conditions: sorbate […] with 0.3 mg soluble chelator (example 4) in the semi-permeable device
Text: In one such culture, only medium was present as a control. […] The chelator was not added directly to the culture medium but was provided as within a dialysis membrane within the culture medium, such that only the external surfaces of the dialysis membrane device were in contact with the bulk of the culture medium, the chelator being within the membrane bag. The dialysis membrane was of the same type that had been used to prepare the soluble chelator and thus its use here ensured that the added chelator would be retained within the membrane device as in contact with the culture medium from within a semi-permeable membrane, i.e., the dialysis tubing. Thus the chelator would not be in direct physical contact with the yeast cells while any iron or sorbate or other low molecular weight media constituents or low molecular weight yeast cell products in the test milieu could diffuse in or out of the semi-permeable device. In a fourth test, 0.3 mg soluble chelator within a similar dialysis bag was added but sorbate was not added to the medium. All four test cultures were inoculated with the yeast and growth was monitored at intervals in the test cultures by optical density measurement at 600 nm over a 120 hr test period.

[8] = system: Candida albicans ATCC 10231; assay: Preservative agent MIC (80% inhibition) challenge test with soluble chelator; type: cell-based
[9] = Pseudomonas aeruginosa, treated RPMI with 0.02 μM Fe, read-out: MIC
[10] = Escherichia coli, treated RPMI with 0.02 μM Fe, read-out: MIC

**Q.** For `CC(=O)N(O)CCCCCNC(=O)CCC(=O)N(O)CCCCCNC(=O)CCC(=O)N(O)CCCCCN` [DESFERAL, deferoxamine], which MIC (S. aureus; treated RPMI with 0.02 μM Fe) is on record?
**A.** > 300 µg/mL

**Q.** What about the MIC (S. aureus; treated RPMI with 0.09 μM Fe) of the same compound?
**A.** > 300 µg/mL

**Q.** What about the MIC (P. aeruginosa; [9]) of the same compound?
**A.** > 300 µg/mL

**Q.** What about the MIC (P. aeruginosa; treated RPMI with 0.09 μM Fe) of the same compound?
**A.** >300 µg/mL

**Q.** What about the MIC (E. coli; Escherichia coli, treated RPMI with 0.09 μM Fe) of the same compound?
**A.** 0.59 µg/mL

**Q.** And the MIC (E. coli; [10])?
**A.** 0.009 µg/mL

**Q.** For `Cc1c(O)c(=O)ccn1C` [Deferiprone, 1,2-dimethyl-3-hydroxy-pyridin-4-one], which MIC (S. aureus; treated RPMI with 0.02 μM Fe) is on record?
**A.** 12.5 µg/mL

**Q.** What about the MIC (S. aureus; treated RPMI with 0.09 μM Fe) of the same compound?
**A.** 25 µg/mL

**Q.** And the MIC (P. aeruginosa; [9])?
**A.** > 100 µg/mL

**Q.** And the MIC (P. aeruginosa; treated RPMI with 0.09 μM Fe)?
**A.** >100 µg/mL

**Q.** And the inhibition of growth [1]?
**A.** about 15%

**Q.** What about the “growth of the yeast compared to control” value [2] of the same compound?
**A.** did not substantially restrict growth

**Q.** What about the “MIC Streptomycin” value ([3]; chelator added 7.4 mM Fe binding equivalents, * slight growth <5% of control turbidity at 640 μg/ml) of the same compound?
**A.** >640* μg/ml

**Q.** What about the “growth at 640 μg/ml streptomycin” value ([3]; chelator added 15 mM Fe binding equivalents) of the same compound?
**A.** still allowed slight growth

**Q.** And the MIC (E. coli; [10])?
**A.** > 100 µg/mL

**Q.** What about the MIC (E. coli; treated RPMI with 0.09 μM Fe) of the same compound?
**A.** >100 µg/mL

**Q.** What about the “Log 10 K(assoc)” value [4] of the same compound?
**A.** 36

**Q.** What does the source list for `OC(Cn1cncn1)(Cn1cncn1)c1ccc(F)cc1F` [Fluconazole]?
**A.** yeast growth (OD 600 nm over 120 hr) ([5]; fluconazole 0.083 μg/ml alone): only delayed and partially restricted yeast growth; yeast growth (OD 600 nm over 120 hr) ([5]; fluconazole 0.083 μg/ml with 0.3 mg soluble chelator (example 4) in the semi-permeable device): prevented growth completely; MIC ([6]; ATCC10231, 96 h, Fluconazole alone, 4 d): > 6 µg/mL; MIC ([6]; ATCC10231, 96 h, plus 25 μg/ml soluble chelator (example 4), 4 d): < 0.05 µg/mL; MIC ([6]; ATCC10231, 96 h, plus Fe-saturated soluble chelator, 4 d): > 6 µg/mL; MIC ([6]; ATCC10231, 96 h, plus […] soluble chelator (Example 4), 4 d): < 0.05 µg/mL; MIC ([6]; ATCC10231, 240 h, Fluconazole alone, 10 d): > 6 µg/mL; MIC ([6]; ATCC10231, 240 h, plus 25 μg/ml soluble chelator (example 4), 10 d): < 0.05 µg/mL; MIC ([6]; ATCC10231, 240 h, plus Fe-saturated soluble chelator, 10 d): > 6 µg/mL; MIC ([6]; ATCC10231, 240 h, plus […] soluble chelator (Example 4), 10 d): 0.05 µg/mL; MIC ([6]; ATCC10231, Fluconazole alone, 42 d): > 6 µg/mL; MIC ([6]; ATCC10231, plus 25 μg/ml Soluble chelator (Example 4), 42 d): < 0.05 µg/mL; MIC ([6]; ATCC10231, plus Fe-saturated soluble chelator, 42 d): > 6 µg/mL; MIC ([6]; ATCC10231, plus […] soluble chelator (Example 4), 42 d): 0.19 µg/mL

**Q.** What does the source list for `C/C=C/C=C/C(=O)[O-].[K+]` [Sorbate, potassium sorbate]?
**A.** yeast growth (OD 600 nm over 120 hr) [7]: prevented growth completely; MIC ([8]; ATCC10231, 48 h, read-out: Sorbate or Paraben MIC, plus soluble chelating composition (Example 4) 25 μg/ml, 2 days): < 20 µg/mL; MIC ([8]; ATCC10231, 48 h, read-out: Sorbate or Paraben MIC, plus soluble chelating composition (Example 4) […], 2 days): < 20 µg/mL; MIC ([8]; ATCC10231, 48 h, read-out: Sorbate or Paraben MIC, preservative alone, 2 days): 120 µg/mL; MIC ([8]; ATCC10231, 240 h, read-out: Sorbate or Paraben MIC, plus soluble chelating composition (Example 4) 25 μg/ml, 10 days): 30 µg/mL; MIC ([8]; ATCC10231, 240 h, read-out: Sorbate or Paraben MIC, plus soluble chelating composition (Example 4) […], 10 days): < 20 µg/mL; MIC ([8]; ATCC10231, 240 h, read-out: Sorbate or Paraben MIC, preservative alone, 10 days): 250 µg/mL
